Experimental data taken from paper PMC10019194, “Killing Two Birds with One Stone: Discovery of Dual Inhibitors of Oxygen and Fumarate Respiration in Zoonotic Parasite, Echinococcus multilocularis” (Antimicrobial Agents and Chemotherapy, 2023).
Where two headings read alike, the source gives them in different places.

Assays:
[1] = biological target: succinate-cytochrome c reductase (complexes II to III) (Echinococcus multilocularis, UniProt Q9TE80); assay: Succinate:cytochrome c reductase activity (complexes II to III); format: biochemical; settings: read-out: IC50 against succinate-cytochrome c reductase
Description: (§1) NADH:quinone reductase activity (complex I), succinate:quinone reductase activity (complex II), and succinate:cytochrome c reductase activity (complexes II to III) were measured using a UV-3000 spectrophotometer (Shimadzu, Kyoto, Japan) as described previously ([4], [6]). Briefly, all enzyme assays using mitochondrial fractions were performed in 0.5- or 1.0-mL reaction mixtures at 25°C. A freeze/thaw process was performed before the assay to ensure that the mitochondrial membrane was permeable to the solutes. The final mitochondrial protein concentration was 50 μg/mL. NADH:quinone reductase activity was measured in 50 mM potassium phosphate buffer (pH 7.4) containing 2 mM potassium cyanide, KCN (Sigma, St. Louis, MO, USA), and 60 μM decylubiquinone (Sigma). The activity assay was started by the addition of 50 μM NADH (Fujifilm-Wako, Tokyo, Japan) and recorded as the rate of NADH consumption as monitored at 340 nm (ε = 6.2 mM^−1 cm^−1). […] SQR activity was determined by monitoring the change in absorbance of quinone at 278 nm (ε = 15 mM^−1 cm^−1) in the presence of 60 μM decylubiquinone, 2 mM KCN, and the inhibitor. […] NADH:cytochrome c activity (complex I to III) was measured in the reaction buffer (30 mM potassium phosphate, 1 mM MgCl2, pH 7.5) containing 2 mM KCN, 50 μM cytochrome c (Nacalai Tesque, Kyoto, Japan), and the inhibitor. […]

[2] = biological target: complex II (succinate:quinone reductase, SQR) (Echinococcus multilocularis, UniProt A0A1Z4EAW8+A0A1Z4EAX0+A0A1Z4EAX1); assay: Succinate:quinone reductase (SQR) activity (complex II) in protoscoleces mitochondrial fraction; format: biochemical
complex II (succinate:quinone reductase, SQR), sequence (A0A1Z4EAV8 entry or part of it): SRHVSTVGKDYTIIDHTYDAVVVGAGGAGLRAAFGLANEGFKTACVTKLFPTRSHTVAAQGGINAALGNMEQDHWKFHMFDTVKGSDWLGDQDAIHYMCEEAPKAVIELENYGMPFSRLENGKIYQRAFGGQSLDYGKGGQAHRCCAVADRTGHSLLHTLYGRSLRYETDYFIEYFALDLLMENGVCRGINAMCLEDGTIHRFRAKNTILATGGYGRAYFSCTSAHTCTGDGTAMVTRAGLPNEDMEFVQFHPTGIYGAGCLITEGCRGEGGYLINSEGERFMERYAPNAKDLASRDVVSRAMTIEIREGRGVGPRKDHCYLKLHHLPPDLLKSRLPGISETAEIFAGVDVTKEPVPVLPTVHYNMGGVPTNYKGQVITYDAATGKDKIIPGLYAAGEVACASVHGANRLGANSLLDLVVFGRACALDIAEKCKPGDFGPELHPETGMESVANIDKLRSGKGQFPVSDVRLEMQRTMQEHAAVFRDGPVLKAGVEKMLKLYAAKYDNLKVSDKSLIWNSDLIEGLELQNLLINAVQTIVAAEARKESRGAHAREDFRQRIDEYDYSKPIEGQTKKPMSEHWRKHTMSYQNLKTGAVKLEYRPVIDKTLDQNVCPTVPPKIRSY
complex II (succinate:quinone reductase, SQR), sequence (A0A1Z4EAX1 entry or part of it): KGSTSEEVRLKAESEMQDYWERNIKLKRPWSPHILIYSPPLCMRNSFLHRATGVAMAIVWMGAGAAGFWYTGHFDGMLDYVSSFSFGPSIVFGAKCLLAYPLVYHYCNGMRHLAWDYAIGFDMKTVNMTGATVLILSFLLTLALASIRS
complex II (succinate:quinone reductase, SQR), sequence (A0A1Z4EAX0 entry or part of it): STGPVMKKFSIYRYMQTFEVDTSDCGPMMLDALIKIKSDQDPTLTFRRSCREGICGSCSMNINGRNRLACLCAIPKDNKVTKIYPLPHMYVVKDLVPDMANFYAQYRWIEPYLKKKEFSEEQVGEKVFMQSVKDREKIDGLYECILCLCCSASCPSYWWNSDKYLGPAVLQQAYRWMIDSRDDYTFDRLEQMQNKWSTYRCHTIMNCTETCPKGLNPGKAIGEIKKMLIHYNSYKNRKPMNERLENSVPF
complex II (succinate:quinone reductase, SQR), sequence (A0A1Z4EAW8 entry or part of it): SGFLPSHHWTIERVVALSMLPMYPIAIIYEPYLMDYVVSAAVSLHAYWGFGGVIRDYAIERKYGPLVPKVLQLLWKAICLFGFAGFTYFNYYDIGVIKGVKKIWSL
Excerpt: (§2) Cyst tissues containing E. multilocularis (Nemuro strain) protoscoleces isolated from infected hispid cotton rats, Sigmodon hispidus, were used. The tissues were shredded through a metal mesh (0.5 mm diameter). Then, the tissues were repeatedly suspended and washed with physiological saline in a tall beaker to obtain protoscoleces by exploiting the buoyancy difference between protoscoleces and other tissue ([26]). The obtained protoscoleces were homogenized with a motor-driven homogenizer to prepare the mitochondrial fraction. The homogenate was diluted with mitochondrial preparation buffer (210 mM mannitol, 10 mM sucrose, 1 mM disodium EDTA, and 50 mM Tris-HCl [pH 7.5]) supplemented with 10 mM sodium malonate to 5 times the volume of the original protoscolex homogenate, and then centrifuged at 800 × g for 10 min (4°C) to remove cell debris and nuclei. The supernatant was then centrifuged at 8,000 × g for 10 min (4°C) to obtain the mitochondrial pellet. Next, the pellet was resuspended in mitochondrial preparation buffer (without malonate) and centrifuged at 8,000 × g for 10 min (4°C). The enriched mitochondrial fraction was finally suspended in approximately 0.5 to 1.0 mL of mitochondrial preparation buffer without malonate and frozen at −50°C. The mitochondrial fraction from A. suum was prepared essentially as described previously ([27], [28]).
(§3) NADH:quinone reductase activity (complex I), succinate:quinone reductase activity (complex II), and succinate:cytochrome c reductase activity (complexes II to III) were measured using a UV-3000 spectrophotometer (Shimadzu, Kyoto, Japan) as described previously ([4], [6]). Briefly, all enzyme assays using mitochondrial fractions were performed in 0.5- or 1.0-mL reaction mixtures at 25°C. A freeze/thaw process was performed before the assay to ensure that the mitochondrial membrane was permeable to the solutes. The final mitochondrial protein concentration was 50 μg/mL. NADH:quinone reductase activity was measured in 50 mM potassium phosphate buffer (pH 7.4) containing 2 mM potassium cyanide, KCN (Sigma, St. Louis, MO, USA), and 60 μM decylubiquinone (Sigma). The activity assay was started by the addition of 50 μM NADH (Fujifilm-Wako, Tokyo, Japan) and recorded as the rate of NADH consumption as monitored at 340 nm (ε = 6.2 mM^−1 cm^−1). The reagents used in the SQR activity assay were mixed with the reaction buffer containing 50 mM potassium phosphate (pH 7.4) and 0.1% (wt/vol) sucrose monolaurate (DOJINDO, Kumamoto, Japan). SQR activity was determined by monitoring the change in absorbance of quinone at 278 nm (ε = 15 mM^−1 cm^−1) in the presence of 60 μM decylubiquinone, 2 mM KCN, and the inhibitor. The reaction was initiated by the addition of 10 mM disodium succinate to the mixture. NADH:cytochrome c activity (complex I to III) was measured in the reaction buffer (30 mM potassium phosphate, 1 mM MgCl2, pH 7.5) containing 2 mM KCN, 50 μM cytochrome c (Nacalai Tesque, Kyoto, Japan), and the inhibitor. The assay was performed after the addition of 100 mM malonate to block complex II activity. The reaction was started by adding 50 μM NADH to the mixture, and the enzyme activity was determined by monitoring the change in absorbance of cytochrome c at 550 nm (ε = 19 mM^−1 cm^−1). IC50 values of AF and its derivatives against the specific activities of mitochondrial respiratory enzymes in protoscoleces were determined. The IC50 of each compound was determined by calculating approximation lines from three or more points on either side of the IC50 concentration.

[3] = biological target: complex I (NADH:quinone reductase) (Echinococcus multilocularis, UniProt A0A068Y553+A0A068Y9L9+Q9TE76); assay: NADH:quinone reductase activity (complex I) in protoscoleces mitochondrial fraction; format: biochemical; settings: E. multilocularis protoscoleces mitochondria; read-out: IC50 NADH:decyl rhodoquinone reductase (complex I)
Excerpt: as §2
as §3, with “Louis, MO, USA), and 60 μM decylubiquinone (Sigma).” left out, “SQR activity was determined by monitoring the change in absorbance of quinone at 278 nm (ε = 15 mM^−1 cm^−1) in the presence of 60 μM decylubiquinone, 2 mM KCN, and the inhibitor.” left out

[4] = biological target: complex I and III (NADH:cytochrome c reductase) (Echinococcus multilocularis, UniProt Q9TE80); assay: NADH:cytochrome c reductase activity (complex I to III) in protoscoleces mitochondrial fraction; format: biochemical; settings: E. multilocularis protoscoleces mitochondria; mean ± SEM; Table 1; read-out: IC50 NADH:cytochrome c reductase (complex I and III)
complex I and III (NADH:cytochrome c reductase), sequence (Q9TE80 entry or part of it): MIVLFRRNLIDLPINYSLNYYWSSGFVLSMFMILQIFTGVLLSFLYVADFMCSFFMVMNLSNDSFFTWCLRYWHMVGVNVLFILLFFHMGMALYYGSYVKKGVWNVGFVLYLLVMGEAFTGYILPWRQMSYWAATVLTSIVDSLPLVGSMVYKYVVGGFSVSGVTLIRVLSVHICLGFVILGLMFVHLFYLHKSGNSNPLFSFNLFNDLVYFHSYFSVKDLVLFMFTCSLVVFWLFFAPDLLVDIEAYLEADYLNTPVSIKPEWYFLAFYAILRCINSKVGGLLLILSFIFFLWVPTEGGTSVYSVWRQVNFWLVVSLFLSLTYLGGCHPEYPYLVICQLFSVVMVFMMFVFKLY
complex I and III (NADH:cytochrome c reductase), sequence (Q9GP40 whole entry, further chain): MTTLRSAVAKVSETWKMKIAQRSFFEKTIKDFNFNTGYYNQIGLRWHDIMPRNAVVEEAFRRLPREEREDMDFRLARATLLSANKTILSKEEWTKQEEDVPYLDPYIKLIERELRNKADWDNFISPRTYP
complex I and III (NADH:cytochrome c reductase), sequence (Q9TE76 entry or part of it, further chain): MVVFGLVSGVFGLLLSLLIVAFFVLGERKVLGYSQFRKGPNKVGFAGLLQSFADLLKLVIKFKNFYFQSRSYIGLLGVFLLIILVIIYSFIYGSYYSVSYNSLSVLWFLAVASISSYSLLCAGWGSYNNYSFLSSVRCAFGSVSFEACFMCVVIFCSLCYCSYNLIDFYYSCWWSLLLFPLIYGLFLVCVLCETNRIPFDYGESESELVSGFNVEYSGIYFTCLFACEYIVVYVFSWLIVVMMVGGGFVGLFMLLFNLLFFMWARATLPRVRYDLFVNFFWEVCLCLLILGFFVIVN
Excerpt: as §2, §3

A. suum complex II = biological target: T1, A. suum complex II (Ascaris suum, UniProt O44074+P92506+P92507); assay: Complex II activity of A. suum mitochondrial fraction; format: biochemical
T1 construct: from tissue; host or cells: A. suum mitochondrial fraction
T1 sequence (O44074 22-282): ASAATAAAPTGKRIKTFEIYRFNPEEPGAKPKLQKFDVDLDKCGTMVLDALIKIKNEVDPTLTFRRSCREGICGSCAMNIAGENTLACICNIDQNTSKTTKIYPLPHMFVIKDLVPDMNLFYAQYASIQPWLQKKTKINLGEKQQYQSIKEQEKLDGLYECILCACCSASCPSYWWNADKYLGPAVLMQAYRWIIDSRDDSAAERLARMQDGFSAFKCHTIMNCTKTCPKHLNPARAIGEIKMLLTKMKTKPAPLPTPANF
T1 sequence (P92506 32-188): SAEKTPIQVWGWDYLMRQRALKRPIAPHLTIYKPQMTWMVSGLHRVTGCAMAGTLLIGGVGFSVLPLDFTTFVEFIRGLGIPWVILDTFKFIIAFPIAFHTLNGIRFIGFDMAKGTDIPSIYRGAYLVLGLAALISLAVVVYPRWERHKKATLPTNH
T1 sequence (P92507 26-156): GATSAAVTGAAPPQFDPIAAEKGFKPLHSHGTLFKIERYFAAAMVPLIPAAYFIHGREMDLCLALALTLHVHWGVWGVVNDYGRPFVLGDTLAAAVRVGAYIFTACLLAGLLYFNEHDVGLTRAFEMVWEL
T1 sequence (Q33862 19-645 partner): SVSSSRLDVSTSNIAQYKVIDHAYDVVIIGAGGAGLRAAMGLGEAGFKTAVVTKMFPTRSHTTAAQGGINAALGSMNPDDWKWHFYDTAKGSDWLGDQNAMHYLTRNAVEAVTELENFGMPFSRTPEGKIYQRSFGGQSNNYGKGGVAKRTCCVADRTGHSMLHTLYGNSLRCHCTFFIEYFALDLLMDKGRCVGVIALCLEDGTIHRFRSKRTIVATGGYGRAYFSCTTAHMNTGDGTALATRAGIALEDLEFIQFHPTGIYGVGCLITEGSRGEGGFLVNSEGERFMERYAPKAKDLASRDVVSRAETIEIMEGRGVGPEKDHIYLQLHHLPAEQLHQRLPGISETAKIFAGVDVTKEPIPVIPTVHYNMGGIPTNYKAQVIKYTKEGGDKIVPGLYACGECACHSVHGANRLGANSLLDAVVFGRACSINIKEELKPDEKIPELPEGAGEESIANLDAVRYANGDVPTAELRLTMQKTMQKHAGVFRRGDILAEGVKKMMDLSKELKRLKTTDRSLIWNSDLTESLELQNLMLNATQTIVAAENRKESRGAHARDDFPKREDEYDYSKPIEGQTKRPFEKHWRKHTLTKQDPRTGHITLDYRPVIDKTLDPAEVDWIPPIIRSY
Excerpt: as §2, with “Next, the pellet was resuspended in mitochondrial preparation buffer (without malonate) and centrifuged at 8,000 × g for 10 min (4°C). The enriched mitochondrial fraction was finally suspended in approximately 0.5 to 1.0 mL of mitochondrial preparation buffer without malonate and frozen at −50°C. The mitochondrial fraction from A. suum was prepared essentially as described previously ([27], [28]).” left out
as §1, with “Briefly, all enzyme assays using mitochondrial fractions were performed in 0.5- or 1.0-mL reaction mixtures at 25°C. A freeze/thaw process was performed before the assay to ensure that the mitochondrial membrane was permeable to the solutes. The final mitochondrial protein concentration was 50 μg/mL.” left out

[5] = tested on: E. multilocularis protoscoleces; assay: Ex vivo culture assay of live protoscoleces, viability by trypan blue exclusion; format: cell-based, Echinococcus multilocularis; settings: 50 μM
Description: FIG 5 Viability of E. multilocularis protoscoleces in ex vivo culture assay. The E. multilocularis protoscoleces were treated with ascofuranone (AF) and its derivatives in culture under aerobic and anaerobic conditions (O2 <0.3%). Each compound was added to the culture medium at a final concentration of 50 μM. The control group was supplemented with 0.5% (vol/vol) dimethyl sulfoxide (DMSO). Atovaquone (ATV) was used as positive control and to ensure anaerobic conditions in the culture. The viability of protoscoleces was evaluated by their ability to exclude trypan blue. The data are presented as the mean ± standard deviation (n = 3).
The obtained protoscoleces were cultured in Connaught Medical Research Laboratories 1066 medium (Gibco, Grand Island, NY, USA) containing 0.5% (wt/vol) yeast extract (Difco Laboratories, Detroit, MI, USA), 2 mM L-glutamine (Gibco), 23 mM 4-(2-hydroxyethyl)-1-piperazineethanesulfonic acid, 0.5% (wt/vol) D (+)-glucose, 0.4 mM sodium taurocholate (Wako Pure Chemical Industries, Osaka, Japan), 57 mM sodium hydrogen carbonate, and 100 U/mL penicillin-streptomycin (Gibco). The protoscoleces were observed daily for seven consecutive days, and half of the medium was replaced on day 3. For anaerobic cultures, six-well plates were sealed in plastic containers with oxygen-detecting agents and oxygen scavengers (Aneromeito, Nissui Pharmaceutical, Tokyo, Japan) to keep the oxygen concentration below 0.3% at 37°C. The protoscoleces were treated with AF and its derivatives at a final concentration of 50 μM in the culture medium, and the duration of parasite elimination was investigated. The control group was supplemented with 0.5% (vol/vol) dimethyl sulfoxide (DMSO), and all conditions were assayed in triplicate. We used ATV in a culture assay as positive control and to ensure anaerobic conditions in the culture ([4], [5]). […] The viability of protoscoleces was determined after microscopic observation of more than 170 protoscoleces per well using the trypan blue exclusion test, as described previously ([4], [6], [33]).

O=C1C(O)=C([C@H]2CC[C@H](c3ccc(Cl)cc3)CC2)C(=O)c2ccccc21 [ATV, Atovaquone, reference compound]
IC50 [1]: 2 nM
IC50 ([2]; IC50 against E. multilocularis complex II (SQR), figure legends, supplement): 690 nM

CC(=O)c1cc(Cl)c(O)c(C/C=C(\C)CCC=C(C)C)c1O [Compound D5]
IC50 [3]: > 50000 nM
IC50 [4]: 221 ± 44 nM
IC50 (A. suum complex II): 11000 nM
fold less potent inhibition of A. suum complex II than of E. multilocularis complex II (A. suum complex II; ratio of IC50 A. suum / E. multilocularis): 234 fold
IC50 ([2]; IC50, inhibition of E. multilocularis SQR, Table 2, substitutions on the benzene group, mean ± SEM): 47 ± 11 nM
IC50 ([2]; IC50 Succinate:quinone reductase (SQR) (complex II), E. multilocularis protoscoleces mitochondria, mean ± SEM, Table 1): 47 ± 11 nM
day of complete elimination of protoscoleces ([5]; aerobic culture): ≤ 6 days
day of complete elimination of protoscoleces ([5]; anaerobic culture (O2 <0.3%)): ≤ 5 days
antiparasitic effect on protoscoleces in culture assay ([5]; both anaerobic and aerobic conditions): strong antiparasitic effect

CC(C)(C)c1ccc(CNC(=O)c2ccccc2C(F)(F)F)cc1 [NN23, reference compound]
IC50 (A. suum complex II; A. suum mitochondrial fraction, read-out: IC50 against A. suum complex II): 5 nM
IC50 ([2]; figure legends, supplement, read-out: IC50 against E. multilocularis complex II (SQR)): > 20000 nM
